Tests used:
[1] = target: T1, specific [^3 H] U-46619 binding to guinea pig platelet membrane (Cavia porcellus, UniProt A0A286Y4I8); assay: Inhibition of specific [^3 H] U-46619 binding to guinea pig platelet membrane; conditions: [^3 H] U-46619, 25° C., 30 min; read-out: IC50 (Concentration for 50% inhibition)
T1 construct: Platelet membranes were prepared according to the following procedure; from tissue; host or cells: guinea pig platelet membranes
T1 sequence (A0A286Y4I8 1-347): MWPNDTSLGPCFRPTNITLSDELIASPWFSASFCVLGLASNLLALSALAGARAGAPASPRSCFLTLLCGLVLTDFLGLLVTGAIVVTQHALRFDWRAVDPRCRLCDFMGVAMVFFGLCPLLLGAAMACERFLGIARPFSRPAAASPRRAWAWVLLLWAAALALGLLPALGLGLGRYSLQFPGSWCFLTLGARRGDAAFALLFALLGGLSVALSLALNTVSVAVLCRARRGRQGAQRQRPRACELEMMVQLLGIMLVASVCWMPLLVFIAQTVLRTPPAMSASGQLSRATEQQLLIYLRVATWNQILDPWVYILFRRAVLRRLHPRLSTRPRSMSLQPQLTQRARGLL
Procedure: Inhibition of specific [^3 H] U-46619 binding to guinea pig platelet membrane
Method: Blood from normal guinea pig was collected into 0.315% citrate solution containing aspirin (final concentration 1 mM) and was centrifuged at 3000 r.p.m. for […]. The PRP (platelet rich plasma) was centrifuged at 4800 r.p.m for 10 min. at 4° C. Platelet membranes were prepared according to the following procedure: In order to remove the residual plasma protein, the platelet pellet was washed once with 30 ml of buffer containing 25 mM Tris-HCl/5 mM MgCl2 (pH 7.4) and recentrifuged to pellet the platelets. The platelets were then resuspended in 20 ml of the same buffer, and the cells were disrupted by sonication. The sonication was performed on ice using a Kontes Sonicator (Vineland, N.J.). The platelets were sonicated for a total of 90 sec. with a 15 sec. burst followed by a 15 sec. intermission. The sonicated mixture was centrifuged at 100,000×g for 1 hour and the membrane fraction was suspended in the same buffer. The protein concentration was adjusted to 1 mg/ml.
The binding assay was performed at 25° C. for 30 min. One ml of the resuspended membrane fraction was incubated with […] of [^3 H] U-46619. The incubation mixture was filtered through a glass fiber membrane (GF/C, whatman) to separate the membrane bound from free [^3 H] U-46619. The membranes were quickly washed twice with 5 ml of cold buffer, mixed with 4 ml of ACS scintillation fluid and counted for [^3 H] U-46619.

5-Lipoxygenase = target: T2, 5-Lipoxygenase (Rattus norvegicus, UniProt P12527); assay: 5-Lipoxygenase inhibitory activity (5-HETE production in RBL-1 cells); format: cell-based; conditions: read-out: Inhibitory effect on 5-HETE production (%)
T2 construct: RBL-1 cells (rat basophilic leukemia cells); endogenous in cells; host or cells: RBL-1 (rat basophilic leukemia cells)
T2 sequence (P12527 1-673): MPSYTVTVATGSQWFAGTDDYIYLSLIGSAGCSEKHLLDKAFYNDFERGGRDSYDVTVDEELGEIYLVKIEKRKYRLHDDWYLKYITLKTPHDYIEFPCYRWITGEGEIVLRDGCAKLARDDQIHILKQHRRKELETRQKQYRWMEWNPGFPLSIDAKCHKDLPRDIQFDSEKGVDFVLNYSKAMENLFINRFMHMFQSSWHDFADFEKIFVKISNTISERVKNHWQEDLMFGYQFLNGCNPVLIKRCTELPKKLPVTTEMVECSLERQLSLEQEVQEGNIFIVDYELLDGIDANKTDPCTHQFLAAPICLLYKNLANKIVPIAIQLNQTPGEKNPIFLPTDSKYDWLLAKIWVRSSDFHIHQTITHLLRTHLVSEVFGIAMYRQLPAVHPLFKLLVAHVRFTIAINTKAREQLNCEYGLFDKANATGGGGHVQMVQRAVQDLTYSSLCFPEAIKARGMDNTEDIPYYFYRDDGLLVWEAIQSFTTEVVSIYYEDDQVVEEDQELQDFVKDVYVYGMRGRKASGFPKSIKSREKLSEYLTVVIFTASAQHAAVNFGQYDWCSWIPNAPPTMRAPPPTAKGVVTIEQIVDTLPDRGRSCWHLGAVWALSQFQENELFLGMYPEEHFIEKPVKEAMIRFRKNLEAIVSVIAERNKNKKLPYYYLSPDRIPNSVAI
Procedure: 5-Lipoxygenase inhibitory activity
Method: 10^7 RBL-1 cells (rat basophilic leukemia cells) were suspended in 0.5 ml of MCM (mast cell medium), and test solutions (made up of 0.5 ml of MCM, 50 μg of arachidonic acid, 10 μg of A-23187 (calcium ionophore) and 1 μM, 0.01 μM and 0.001 μM as the final concentration of the phenol compound, respectively) prepared previously were added respectively to the suspension, followed by reaction at 37° C. for 20 minutes. After the conclusion of the reaction, 4 ml of ethanol and 1,4-dimethoxy-2-methyl-3-(3-methoxypropyl)naphthalene as the internal reference drug were added to the reaction solution, and the mixture was shaken thoroughly and allowed to stand at room temperature for 10 minutes. Then, it was centrifuged (2000 r.p.m.) for 10 minutes, and the supernatant fluid was separated and concentrated to dryness under reduced pressure. 0.5 ml of 60% aqueous methanol was added to the concentrate, and 100 μl of the resulting solution was taken and subjected to high-performance liquid chromatography to determine the amount of 5-HETE (5-hydroxy-eicosatetraenoic acid). Determination of 5-HETE was made through measurement of an absorption at 237 nm with a UV absorption monitor.
The 5-HETE production inhibitory effect (IE) was expressed by [formula] wherein a is a peak height or peak area corrected by the peak for the internal reference when the phenol compound is not contained; b is a peak height or peak area corrected by the peak for the internal reference when the phenol compound is contained.

[2] = system: U-46619 (TXA2 mimic)-induced broncho-constriction; assay: Inhibitory effect on U-46619 (TXA2 mimic)-induced broncho-constriction in guinea pig; format: in vivo; conditions: Cavia porcellus, iv; 0.31 mg/kg i.v., 9 minutes before U-46619; ** p < 0.01
Procedure: Inhibitory effect on U-46619 (TXA2 mimic)-induced broncho-constrictionin guinea pig
Method: Eight male Hartley guinea pigs were used per one group. The guinea pig anesthetized with urethane (1.5 g/kg, i.p.) was fixed in a dorsal position, subjected to tracheotomy and connected to a respirator through a cannula. A side branch of the tracheal cannula was connected to a respirator (Harvard apparatus rodent respirator Type 680) at the rate of 70 strokes/min. and a constant volume of 3 to 5 ml.
Inflation pressure was kept constant at 10 cm H2 O.
After treatment with gallamine triethiodide (1 mg/kg, i.v.), U-46619 (10 μg/Kg) dissolved in a physiological saline solution was given through a carotid cannula and the airway resistance was measured by the overflow technique of Konzett-Rossler method (Konzett, H. and Rossler, R., Naunyn-Schmiedegerg's Arch, Exp. Path. Pharmak., 195, 71-74 (1940). A test compound was suspended in 5% gum arabic solution and was administered orally 1 hour before the treatment with U-46619.
Alternatively, a test compound was dissolved in aqueous 50% dimethylsulfoxide solution and administered interveneously in the dosage of 0.1 ml/100 g body weight 9 minutes before the treatment of U-46619.

Work on `Cc1c(C)c(Br)c(C)c(C(CCCCCC(=O)O)c2ccc(F)cc2)c1O` (stereo not shown) [Compound 12, 7-(5-bromo-2-hydroxy-3,4,6-trimethylphenyl)-7-(4-fluorophenyl)heptanoic acid] yielded an IC50 [1] of 200 nM, an inhibition at 10 µM (5-Lipoxygenase; 10^-5 M) of 96% and an inhibition at 1 µM (5-Lipoxygenase; 10^-6 M) of 22%. The inhibition in vivo at 0.31 mg/kg [2] was 96%.

Source: patent US5162571A, “Phenol derivatives, their production and use” (Takeda Chemical Industries, Ltd., priority 1987, dated 1992)
